According to ChEMBL document CHEMBL1201862, “PubChem BioAssay data set” (2004):
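How tested: cells in 96-well plates exposed to compound for 48 hours at five concentrations. Abbreviation: GI50, concentration required for 50% inhibition of growth.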 Activity calls are given as the source filed them. Cut-off read from the data, not from the text of the source: active = GI50 up to about 1.1 µM and inactive = higher.

Legend:
Assay in all cases: NCI-60 cell line screen, 48 h
SR = test system: SR
HCC 2998 = test system: HCC 2998
SK-MEL-28 = test system: SK-MEL-28
MDA-MB-435 = test system: MDA-MB-435
OVCAR-3 = test system: OVCAR-3
Malme-3M = test system: Malme-3M
NCI/ADR-RES = test system: NCI/ADR-RES
RXF 393 = test system: RXF 393
NCI-H522 = test system: NCI-H522
SNB-75 = test system: SNB-75
SK-MEL-2 = test system: SK-MEL-2
MDA-MB-231 = test system: MDA-MB-231
UO-31 = test system: UO-31
ACHN = test system: ACHN
SNB-19 = test system: SNB-19
OVCAR-5 = test system: OVCAR-5
HOP-62 = test system: HOP-62
HT-29 = test system: HT-29
UACC-62 = test system: UACC-62
EKVX = test system: EKVX

| Compound | GI50 (SR) | GI50 (HCC 2998) | GI50 (SK-MEL-28) | GI50 (MDA-MB-435) | GI50 (OVCAR-3) | GI50 (Malme-3M) | GI50 (NCI/ADR-RES) | GI50 (RXF 393) | GI50 (NCI-H522) | GI50 (SNB-75) | GI50 (SK-MEL-2) | GI50 (MDA-MB-231) | GI50 (UO-31) | GI50 (ACHN) | GI50 (SNB-19) | GI50 (OVCAR-5) | GI50 (HOP-62) | GI50 (HT-29) | GI50 (UACC-62) | GI50 (EKVX) |
| --- | --- | --- | --- | --- | --- | --- | --- | --- | --- | --- | --- | --- | --- | --- | --- | --- | --- | --- | --- | --- |
| CN(CCCCCl)P(=O)(OCc1ccc([N+](=O)[O-])o1)OCC1OC(n2ccc(N)nc2=O)C(O)C1O (configuration not stated) | 5.87 µM (inactive) | 3.37 µM (inactive) | 2.33 µM (inactive) | 1.98 µM (inactive) | 2.1 µM (inactive) | 1.16 µM (inactive) | 4.47 µM (inactive) | 6.21 µM (inactive) | 3.15 µM (inactive) | 0.571 µM (active) | 9.79 µM (inactive) | 18.9 µM (inactive) | 14.2 µM (inactive) | 11.7 µM (inactive) | 3.21 µM (inactive) | 14.8 µM (inactive) | 10.6 µM (inactive) | 4.61 µM (inactive) | 12.9 µM (inactive) |  |
| O=C(O)C1C(C(=O)O)C23CC2(C(=O)O)C2(C(=O)O)CCC3=C3CCCC312 (configuration not stated) | 2.24 µM (inactive) |  | 5.97 µM (inactive) | 7.73 µM (inactive) | 2.5 µM (inactive) | 4.21 µM (inactive) | 20.7 µM (inactive) | 6.84 µM (inactive) | 3.73 µM (inactive) | 11.2 µM (inactive) | 14 µM (inactive) | 12.1 µM (inactive) | 8.97 µM (inactive) | 9.51 µM (inactive) | 7.93 µM (inactive) | 16.6 µM (inactive) | 4.44 µM (inactive) | 7.45 µM (inactive) | 10.5 µM (inactive) | 11.6 µM (inactive) |
| COc1cc(/C=C/C(=O)N[C@@H]2C(=O)N3[C@@H]2SC(C)(C)[C@@H]3C(=O)O)ccc1O | > 100 µM (inactive) | > 100 µM (inactive) | > 100 µM (inactive) | > 100 µM (inactive) | > 100 µM (inactive) |  | > 100 µM (inactive) | > 100 µM (inactive) | > 100 µM (inactive) | > 100 µM (inactive) | > 100 µM (inactive) | > 100 µM (inactive) | > 100 µM (inactive) | > 100 µM (inactive) | > 100 µM (inactive) | > 100 µM (inactive) | > 100 µM (inactive) | > 100 µM (inactive) | > 100 µM (inactive) | > 100 µM (inactive) |
